Reference: ChEMBL document CHEMBL1201862, “PubChem BioAssay data set” (2004)
The source made the active and inactive calls.

Tests used:
[1] = molecular target: Lysosomal acid glucosylceramidase (Homo sapiens, UniProt P04062); assay: Dose response cell-based high throughput screening assay to identify enhancers of beta-glucosidase activity. [Related pubchem assays: 784 ]; type: functional
HEK293 [2] = assay: Fluorescence-based counterscreen for potentiators or agonists of NPY-Y1: cell-based high-throughput dose response assay for inhibitors of cyclic nucleotide gated ion channel (CNGC) activity. In this assay, the parental HEK293 cell line transfected with a cyclic-nucleotide gated ion channel (CNGC)-based cAMP sensor is used to measure inhibition of isoproterenol-induced CNGC …; type: functional; conditions: Homo sapiens
[3] = molecular target: T1, Neuropeptide Y receptor type 2 (Homo sapiens, UniProt P49146); assay: Fluorescence-based counterscreen for agonists of NPY-Y1: cell-based high-throughput dose response assay for agonists of NPY-Y2.; type: functional
T1 sequence (P49146 whole entry): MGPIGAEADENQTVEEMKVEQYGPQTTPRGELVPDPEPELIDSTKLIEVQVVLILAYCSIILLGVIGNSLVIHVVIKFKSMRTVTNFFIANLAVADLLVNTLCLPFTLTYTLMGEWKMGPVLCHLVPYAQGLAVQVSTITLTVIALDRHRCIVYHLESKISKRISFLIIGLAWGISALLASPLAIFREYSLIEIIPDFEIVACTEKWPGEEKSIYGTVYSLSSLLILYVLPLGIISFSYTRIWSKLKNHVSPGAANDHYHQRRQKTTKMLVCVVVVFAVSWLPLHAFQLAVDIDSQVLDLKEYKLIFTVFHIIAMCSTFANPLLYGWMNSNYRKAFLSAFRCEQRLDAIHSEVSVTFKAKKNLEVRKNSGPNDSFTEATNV

[4] = molecular target: T2, Neuropeptide Y receptor type 1 (Homo sapiens, UniProt P25929); assay: Fluorescence-based dose response cell-based high-throughput screening assay for agonists of NPY-Y1. [Related pubchem assays: 1697 (Screening assay (NPY-Y1 agonists).), 1359 (Screening assay (NPY-Y2 potentiators or agonists).), 1304 (Screening assay (NPY-Y1 potentiators or agonists).), 1704 (Screening assay (CNGC inhibitors).), 1791 (Summary AID.)]; type: functional
T2 sequence (P25929 whole entry): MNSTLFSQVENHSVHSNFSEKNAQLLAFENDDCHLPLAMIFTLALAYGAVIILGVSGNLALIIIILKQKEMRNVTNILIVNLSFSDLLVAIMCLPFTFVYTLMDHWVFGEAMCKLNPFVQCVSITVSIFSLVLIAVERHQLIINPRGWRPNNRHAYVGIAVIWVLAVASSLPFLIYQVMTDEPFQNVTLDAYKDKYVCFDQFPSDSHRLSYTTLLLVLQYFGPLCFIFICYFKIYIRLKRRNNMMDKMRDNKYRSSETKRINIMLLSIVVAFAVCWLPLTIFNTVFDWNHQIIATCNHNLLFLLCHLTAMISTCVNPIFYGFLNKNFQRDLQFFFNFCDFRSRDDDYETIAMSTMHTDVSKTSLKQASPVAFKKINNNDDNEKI

Vero [5] = assay: cells; type: functional; conditions: Chlorocebus sabaeus
HEK293 [6] = assay: TNF Induced NF-kB Luciferase in 293-NF-kB-Luc Stable Cells. [Related pubchem assays: 1266, 1299, 1269, 1373, 1292, 1290, 1302, 1371, 1283, 1270, 1295, 1271, 1375, 1294, 1374, 1281, 1293, 1291, 1289, 1280, 465, 1368, 1364, 1282, 1372, 1365, 1369, 1370, 1367, 1366 ]; type: functional, cell-based; conditions: Homo sapiens
Vero [7] = assay: cells; type: functional, cell-based; conditions: Chlorocebus sabaeus
HEK293 [8] = assay: PMA/Ionomycin induced NF-kB luciferase assay in 293- NF-kB-Luc stable cells. [Related pubchem assays: 1299, 1270, 1295, 1375, 1287, 1281, 1293, 1291, 1289, 1280, 465, 1364, 1282, 1372, 1365, 1370, 1367, 1366, 1269, 1373, 1292, 1290, 1302, 1371, 1283, 1271, 1294, 1374, 1368, 1369 ]; type: functional, cell-based; conditions: Homo sapiens
[9] = molecular target: Luciferin 4-monooxygenase (Photinus pyralis, UniProt P08659); assay: In vitro luciferase assay using purified luciferase. [Related pubchem assays: 1299, 1270, 1295, 1375, 1287, 1281, 1293, 1291, 1289, 1280, 465, 1364, 1282, 1372, 1365, 1370, 1367, 1366, 1266, 1373, 1292, 1290, 1302, 1371, 1283, 1271, 1294, 1374, 1368, 1369 ]
[10] = HEp-2 cell cytotoxicity, dose response, cytotoxicity control for RSV inhibitor project, HTS (AID 2410); type: functional; conditions: human respiratory syncytial virus
HEK293 [11] = assay: PMA/Ionomycin-induced IL-8 production in HEK293- NF-kB-Luc stable cells. [Related pubchem assays: 1299, 1295, 1375, 1287, 1281, 1293, 1291, 1289, 1280, 465, 1364, 1282, 1372, 1365, 1367, 1366, 1266, 1269, 1373, 1292, 1290, 1302, 1371, 1283, 1271, 1294, 1374, 1368, 1369 ]; type: functional, cell-based; conditions: Homo sapiens
HEK293 [12] = assay: Cytotoxicity assay in HEK293 cells. [Related pubchem assays (depositor defined):AID1266, AID1269, AID1270, AID1271, AID1280, AID1281, AID1282, AID1283, AID1287, AID1289, AID1290, AID1291, AID1292, AID1293, AID1294, AID1295, AID1299, AID1302, AID1364, AID1365, AID1366, AID1367, AID1369, AID1370, AID1371, AID1372, AID1373, AID1374, AID1375, AID1384 …; type: functional, cell-based; conditions: Homo sapiens
Aspartyl aminopeptidase = Aspartyl aminopeptidase (Plasmodium falciparum 3D7, UniProt Q8I2J3)
Procathepsin L = Procathepsin L (Homo sapiens, UniProt P07711)
[13] = molecular target: T3, Alkaline phosphatase, tissue-nonspecific isozyme (Homo sapiens, UniProt P05186)
T3 sequence (P05186 whole entry): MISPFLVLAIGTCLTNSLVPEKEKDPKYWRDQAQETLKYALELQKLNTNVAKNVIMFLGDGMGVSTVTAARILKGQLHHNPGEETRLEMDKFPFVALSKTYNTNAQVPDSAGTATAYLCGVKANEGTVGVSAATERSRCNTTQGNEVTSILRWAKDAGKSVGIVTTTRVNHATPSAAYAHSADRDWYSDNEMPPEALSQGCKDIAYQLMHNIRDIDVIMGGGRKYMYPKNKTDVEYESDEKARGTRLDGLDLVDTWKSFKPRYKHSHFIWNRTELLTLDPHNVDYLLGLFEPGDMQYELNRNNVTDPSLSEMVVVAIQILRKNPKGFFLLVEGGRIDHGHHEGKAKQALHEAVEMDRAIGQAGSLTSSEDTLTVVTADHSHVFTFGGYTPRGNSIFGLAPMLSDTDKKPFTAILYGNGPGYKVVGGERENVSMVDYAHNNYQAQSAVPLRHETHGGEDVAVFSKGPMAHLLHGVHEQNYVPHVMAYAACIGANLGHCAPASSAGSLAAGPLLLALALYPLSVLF

[14] = Luminescence-based cell-based high throughput dose response assay to identify activators of the DAF-12 from the parasite S. stercoralis (ssDAF-12).; type: functional
[15] = Counterscreen for IDE inhibitors: Luminescence-based cell-based high throughput dose response assay to identify compounds that are cytotoxic to HEK cells. [Related pubchem assays: 434962 (Primary screen (IDE inhibitors in singlicate)), 449730 (Counterscreen (Cytotoxicity in triplicate)), 435028 (Confirmation (IDE inhibitors in triplicate)) …; type: functional; conditions: HEK293
[16] = molecular target: T4, Oxysterols receptor LXR-beta (Homo sapiens, UniProt P55055); assay: LXR agonists, Gal4 luciferase reporter, dose response, counter-screen for ssDAF-12 agonist project, cell-based, luminescence, HEK293, S. stercoralis campaign (AID 720737); type: functional; conditions: read-out: IC50 (the source's name)
T4 sequence (P55055 whole entry): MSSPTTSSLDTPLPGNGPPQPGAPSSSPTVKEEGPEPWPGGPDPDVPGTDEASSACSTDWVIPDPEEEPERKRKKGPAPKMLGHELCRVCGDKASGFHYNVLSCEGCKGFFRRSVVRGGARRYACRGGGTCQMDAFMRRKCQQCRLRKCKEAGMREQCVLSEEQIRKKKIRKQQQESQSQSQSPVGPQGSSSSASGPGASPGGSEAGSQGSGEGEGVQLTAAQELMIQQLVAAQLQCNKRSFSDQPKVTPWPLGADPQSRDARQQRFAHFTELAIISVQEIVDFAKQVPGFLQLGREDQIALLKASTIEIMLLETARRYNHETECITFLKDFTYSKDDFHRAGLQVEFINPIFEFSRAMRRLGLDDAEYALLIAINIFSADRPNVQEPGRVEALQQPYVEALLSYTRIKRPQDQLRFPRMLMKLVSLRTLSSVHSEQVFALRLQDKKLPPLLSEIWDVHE

[17] = enhancers of respiration in Yfh1-depleted yeast, dose response, Friedreich's ataxia, plus single-dose screen (AID 1465); type: functional;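 further: yeast depleted of Yfh1p frataxin homolog grown on glycerol needing respiration; WST-1 tetrazolium dye reduction as measure of cellular dehydrogenase metabolic activity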
Insulin-degrading enzyme = molecular target: T5, Insulin-degrading enzyme (Homo sapiens, UniProt P14735); assay: Dose Response: Fluorescence polarization-based cell-based high throughput dose response assay for inhibitors of insulin-degrading enzyme (IDE). [Related pubchem assays: 434962 (Primary screen (IDE inhibitors in singlicate)), 449730 (Counterscreen (Cytotoxicity in triplicate)), 435028 (Confirmation (IDE inhibitors in triplicate)), 434984 (Summary …; type: functional
T5 sequence (P14735 whole entry): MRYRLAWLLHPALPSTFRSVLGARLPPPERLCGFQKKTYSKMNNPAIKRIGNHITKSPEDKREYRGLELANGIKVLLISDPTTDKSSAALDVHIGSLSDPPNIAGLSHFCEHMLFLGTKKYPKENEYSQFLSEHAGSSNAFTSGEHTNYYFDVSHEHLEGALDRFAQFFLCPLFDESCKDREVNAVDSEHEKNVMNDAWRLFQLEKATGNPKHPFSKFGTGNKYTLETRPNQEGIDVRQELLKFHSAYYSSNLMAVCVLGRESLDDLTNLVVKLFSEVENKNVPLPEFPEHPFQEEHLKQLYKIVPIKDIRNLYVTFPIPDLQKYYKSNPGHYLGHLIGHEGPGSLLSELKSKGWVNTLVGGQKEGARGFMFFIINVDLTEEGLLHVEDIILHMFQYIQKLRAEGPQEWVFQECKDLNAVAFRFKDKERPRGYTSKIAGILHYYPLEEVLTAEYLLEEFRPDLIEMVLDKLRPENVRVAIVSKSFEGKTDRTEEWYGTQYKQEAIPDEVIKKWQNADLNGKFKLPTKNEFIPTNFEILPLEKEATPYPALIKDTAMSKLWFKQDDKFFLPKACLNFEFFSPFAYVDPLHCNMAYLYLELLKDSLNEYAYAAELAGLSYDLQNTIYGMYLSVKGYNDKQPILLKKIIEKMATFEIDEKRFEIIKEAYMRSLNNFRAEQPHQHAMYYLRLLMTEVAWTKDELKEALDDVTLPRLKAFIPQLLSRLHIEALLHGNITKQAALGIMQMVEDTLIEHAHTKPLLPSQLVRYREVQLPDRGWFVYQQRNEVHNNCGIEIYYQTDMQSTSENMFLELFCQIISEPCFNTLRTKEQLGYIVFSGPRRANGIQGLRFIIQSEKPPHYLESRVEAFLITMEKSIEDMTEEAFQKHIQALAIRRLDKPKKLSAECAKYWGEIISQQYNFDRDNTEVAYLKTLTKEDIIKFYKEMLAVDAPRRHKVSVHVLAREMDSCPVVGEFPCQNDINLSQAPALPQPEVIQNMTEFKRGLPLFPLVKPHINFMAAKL

Protein Rev = Protein Rev (Human immunodeficiency virus type 1 group M subtype B (isolate WMJ22)(HIV-1), UniProt P05866); assay: HIV-1 Rev-RRE RNA binding disruptors, dose response, biochemical, protein-RNA interaction (AID 842); set-up: species or system Human immunodeficiency virus 1
Cytochrome P450 3A4 = Cytochrome P450 3A4 (Homo sapiens, UniProt P08684); conditions: Potency;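 further: confirmatory qHTS run detecting inhibitors and substrates of CYP3A4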
Cytochrome P450 2C9 = Cytochrome P450 2C9 (Homo sapiens, UniProt P11712); conditions: Potency
[18] = molecular target: Acyl-homoserine lactone acylase PvdQ (Pseudomonas aeruginosa (strain LESB58), UniProt Q9I194); assay: P. aeruginosa PvdQ acylase inhibitors, dose response, biochemical, fluorescence, plate reader and imaging, cherry-picks (AID 493231)
Acyl-homoserine lactone acylase PvdQ, sequence (Q9I194 24-193 limits assumed): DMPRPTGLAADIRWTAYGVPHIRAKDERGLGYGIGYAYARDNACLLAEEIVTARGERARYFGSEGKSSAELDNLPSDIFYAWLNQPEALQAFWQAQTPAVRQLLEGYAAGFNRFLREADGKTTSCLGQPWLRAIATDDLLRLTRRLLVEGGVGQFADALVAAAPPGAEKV
Acyl-homoserine lactone acylase PvdQ, sequence (Q9I194 217-762 limits assumed): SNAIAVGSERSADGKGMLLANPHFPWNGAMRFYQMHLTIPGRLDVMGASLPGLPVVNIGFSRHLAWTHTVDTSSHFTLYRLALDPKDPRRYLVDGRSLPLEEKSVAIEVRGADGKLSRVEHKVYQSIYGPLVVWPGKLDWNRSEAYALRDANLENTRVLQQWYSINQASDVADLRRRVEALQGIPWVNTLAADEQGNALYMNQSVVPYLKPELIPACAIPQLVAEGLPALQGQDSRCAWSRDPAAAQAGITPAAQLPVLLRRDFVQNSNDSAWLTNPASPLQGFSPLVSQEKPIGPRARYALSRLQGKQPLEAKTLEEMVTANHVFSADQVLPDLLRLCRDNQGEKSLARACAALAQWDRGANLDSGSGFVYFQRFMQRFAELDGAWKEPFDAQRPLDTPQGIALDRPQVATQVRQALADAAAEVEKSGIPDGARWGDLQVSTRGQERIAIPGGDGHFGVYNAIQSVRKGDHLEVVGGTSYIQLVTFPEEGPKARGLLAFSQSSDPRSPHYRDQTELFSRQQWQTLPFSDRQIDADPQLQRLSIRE

Cytochrome P450 3A4, sequence (P08684 whole entry): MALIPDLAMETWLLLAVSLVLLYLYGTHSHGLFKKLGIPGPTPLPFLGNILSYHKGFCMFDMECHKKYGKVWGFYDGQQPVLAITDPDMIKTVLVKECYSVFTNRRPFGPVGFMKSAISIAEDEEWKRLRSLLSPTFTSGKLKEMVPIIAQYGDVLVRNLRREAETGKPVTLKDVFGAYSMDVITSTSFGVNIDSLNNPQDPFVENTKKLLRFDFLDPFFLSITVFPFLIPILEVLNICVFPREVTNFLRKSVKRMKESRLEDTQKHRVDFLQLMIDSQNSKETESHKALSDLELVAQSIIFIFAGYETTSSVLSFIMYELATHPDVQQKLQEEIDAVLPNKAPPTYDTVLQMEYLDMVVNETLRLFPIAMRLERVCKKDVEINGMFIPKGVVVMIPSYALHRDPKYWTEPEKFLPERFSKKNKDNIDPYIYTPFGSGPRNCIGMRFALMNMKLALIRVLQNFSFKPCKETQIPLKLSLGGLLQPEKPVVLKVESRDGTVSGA
Protein Rev, sequence (P05866 whole entry): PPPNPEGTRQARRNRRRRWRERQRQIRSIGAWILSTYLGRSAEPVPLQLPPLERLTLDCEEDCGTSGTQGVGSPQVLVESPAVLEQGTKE
Luciferin 4-monooxygenase, sequence (P08659 whole entry): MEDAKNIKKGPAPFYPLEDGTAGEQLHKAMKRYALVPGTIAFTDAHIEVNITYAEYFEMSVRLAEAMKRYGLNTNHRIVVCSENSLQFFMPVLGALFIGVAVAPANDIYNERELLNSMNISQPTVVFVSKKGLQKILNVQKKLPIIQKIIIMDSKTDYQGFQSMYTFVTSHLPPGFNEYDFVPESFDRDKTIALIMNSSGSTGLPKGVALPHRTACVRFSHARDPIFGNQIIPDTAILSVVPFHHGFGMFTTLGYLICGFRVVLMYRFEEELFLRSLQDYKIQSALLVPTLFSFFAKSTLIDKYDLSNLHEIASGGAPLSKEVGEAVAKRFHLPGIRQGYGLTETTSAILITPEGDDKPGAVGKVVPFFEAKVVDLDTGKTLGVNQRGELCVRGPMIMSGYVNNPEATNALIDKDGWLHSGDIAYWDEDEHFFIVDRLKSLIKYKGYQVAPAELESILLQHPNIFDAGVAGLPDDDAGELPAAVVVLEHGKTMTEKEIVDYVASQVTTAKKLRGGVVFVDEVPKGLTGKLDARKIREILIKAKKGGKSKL
Lysosomal acid glucosylceramidase, sequence (P04062 whole entry): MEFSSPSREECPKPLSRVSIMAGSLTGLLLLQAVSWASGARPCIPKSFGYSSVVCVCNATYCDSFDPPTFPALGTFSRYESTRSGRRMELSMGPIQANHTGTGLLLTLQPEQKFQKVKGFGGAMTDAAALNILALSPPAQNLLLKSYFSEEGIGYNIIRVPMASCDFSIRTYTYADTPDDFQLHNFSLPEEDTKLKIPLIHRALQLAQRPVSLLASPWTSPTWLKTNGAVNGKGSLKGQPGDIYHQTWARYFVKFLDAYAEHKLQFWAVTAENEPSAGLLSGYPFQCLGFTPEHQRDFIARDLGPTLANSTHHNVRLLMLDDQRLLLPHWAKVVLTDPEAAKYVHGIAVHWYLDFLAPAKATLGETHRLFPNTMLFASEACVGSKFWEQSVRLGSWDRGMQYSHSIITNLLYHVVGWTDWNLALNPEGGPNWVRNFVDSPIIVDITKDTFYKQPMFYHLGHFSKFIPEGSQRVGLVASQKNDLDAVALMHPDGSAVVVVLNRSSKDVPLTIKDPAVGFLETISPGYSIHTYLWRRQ
Aspartyl aminopeptidase, sequence (Q8I2J3 whole entry): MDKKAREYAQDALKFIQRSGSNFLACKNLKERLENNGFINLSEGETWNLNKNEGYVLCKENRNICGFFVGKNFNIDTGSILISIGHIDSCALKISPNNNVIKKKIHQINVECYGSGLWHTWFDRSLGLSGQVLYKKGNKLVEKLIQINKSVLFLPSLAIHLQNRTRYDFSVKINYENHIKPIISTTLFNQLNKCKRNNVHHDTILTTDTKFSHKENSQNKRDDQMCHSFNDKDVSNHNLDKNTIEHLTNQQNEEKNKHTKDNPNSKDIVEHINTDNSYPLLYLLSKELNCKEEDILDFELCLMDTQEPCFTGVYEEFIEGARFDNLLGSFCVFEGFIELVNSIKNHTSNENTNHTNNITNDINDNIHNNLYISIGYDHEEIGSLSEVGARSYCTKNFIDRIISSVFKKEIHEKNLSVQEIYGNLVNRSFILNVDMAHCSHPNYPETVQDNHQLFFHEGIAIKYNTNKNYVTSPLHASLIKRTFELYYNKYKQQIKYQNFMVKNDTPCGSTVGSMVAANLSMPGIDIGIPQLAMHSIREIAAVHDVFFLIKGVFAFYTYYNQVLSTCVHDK
Procathepsin L, sequence (P07711 whole entry): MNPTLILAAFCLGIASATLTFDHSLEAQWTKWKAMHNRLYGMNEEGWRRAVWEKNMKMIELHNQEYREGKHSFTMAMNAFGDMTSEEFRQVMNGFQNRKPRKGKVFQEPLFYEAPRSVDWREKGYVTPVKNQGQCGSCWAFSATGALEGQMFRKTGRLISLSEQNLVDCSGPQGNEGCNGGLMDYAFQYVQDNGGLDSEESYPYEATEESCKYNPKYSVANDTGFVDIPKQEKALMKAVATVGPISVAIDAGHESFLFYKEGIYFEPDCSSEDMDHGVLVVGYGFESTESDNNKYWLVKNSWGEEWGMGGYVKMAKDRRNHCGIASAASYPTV
Cytochrome P450 2C9, sequence (P11712 whole entry): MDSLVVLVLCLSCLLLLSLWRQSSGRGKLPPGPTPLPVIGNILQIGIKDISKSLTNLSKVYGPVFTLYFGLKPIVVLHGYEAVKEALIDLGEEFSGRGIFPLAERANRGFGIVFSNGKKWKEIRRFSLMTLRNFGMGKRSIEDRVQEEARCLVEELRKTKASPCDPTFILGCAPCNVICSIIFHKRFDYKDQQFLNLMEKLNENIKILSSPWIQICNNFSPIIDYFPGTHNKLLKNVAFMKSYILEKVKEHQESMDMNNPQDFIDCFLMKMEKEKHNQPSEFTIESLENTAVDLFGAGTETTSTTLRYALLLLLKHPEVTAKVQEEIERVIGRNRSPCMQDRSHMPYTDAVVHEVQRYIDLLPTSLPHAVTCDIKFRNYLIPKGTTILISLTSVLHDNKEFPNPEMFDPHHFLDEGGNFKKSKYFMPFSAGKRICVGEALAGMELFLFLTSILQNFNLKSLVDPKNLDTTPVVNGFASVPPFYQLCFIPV

## O=C(OCCN1CCCCC1)c1cc2ccccc2o1
[1]
  EC50: > 10 µM (not active)

## Oc1ccccc1Cn1c(-c2ccccc2O)nc2ccccc21
HEK293 [2]
  IC50: 14.3 µM (not active)
[3]
  EC50: 24.7 µM (not active)
[4]
  EC50: 15.6 µM (not active)

## Cc1oc(-c2ccccc2Cl)nc1CSCC(=O)N1CCCC1
Vero [5]
  CC50: > 25 µM (active)
HEK293 [6]
  EC50: > 8 µM (not active)
Vero [7]
  IC50: 2.28 µM (active)
HEK293 [8]
  EC50: < 4 µM (active)
cells
  IC50: 11 µM (active)
[9]
  EC50: > 8 µM (not active)
[10]
  CC50: 16 µM (active)
HEK293 [11]
  EC50: 11.1 µM (not active)
HEK293 [12]
  EC50: > 8 µM (inactive)

## O=C(O)c1c[nH]nc1-n1cnnn1
Aspartyl aminopeptidase
  IC50: 1.27 µM (active)
Procathepsin L
  IC50: > 59.6 µM (not active)

## Cc1ccc(C(=O)NN=C(S)Nc2cccc3ccccc23)s1
[13]
  EC50: 62.6 µM (not active)

## N#C/C(=C\c1ccc(N2CCOCC2)o1)C(=O)NCC1CCCO1 (stereo not given)
[14]
  IC50: > 67.5 µM (inactive)
[15]
  IC50: > 55.7 µM (not active)
[16]
  EC50: > 67.5 µM (inactive)
[17]
  EC50: > 100 µM (active)
Insulin-degrading enzyme
  IC50: 25.3 µM (not active)

## COc1ccc(CCNC(C)CCc2ccc(OC)cc2)cc1 (stereo not given)
Protein Rev
  IC50: > 79.4 µM (not active)

## CC1CN2C(CCC(C)C2c2ccc(Br)cc2)C(=O)O1 (stereo not given)
Cytochrome P450 3A4
  AC50: 5.01 µM (inconclusive)
Cytochrome P450 2C9
  AC50: 3.98 µM (inconclusive)

## O=C1C=C(c2ccccc2C(F)(F)F)C[C@@H](c2ccc3c(c2)OCO3)C1
[18]
  AC50: > 100 µM (inactive)
